According to patent US11407715B2, “Substituted indoline derivatives as dengue viral replication inhibitors” (JANSSEN PHARMACEUTICALS, INC., priority 2017, dated 2022):

What was measured:
Vero cells = details: African green monkey
DENV-2 16681 strain = assay: microbe, parasite or virus in culture; type: cell-based, Dengue virus; details: for EC50: DENV-2 16681 eGFP, Vero cells, MOI 0.5, 3 days; for SI: SI=CC50/EC50, DENV-2 antiviral assay

SMILES | CC50 (Vero cells) | EC50 (DENV-2 16681 strain) | SI (DENV-2 16681 strain)
COc1cc(NC(C(=O)N2CCc3cc(OC)c(C(F)(F)F)cc32)c2ccc(Cl)cc2)cc(OCC2CC(C(=O)O)C2)c1 (stereo not drawn) [Compound 24A] | 11 µM | 24 nM | 469
COc1cc(NC(C(=O)N2CCc3cc(OC)c(C(F)(F)F)cc32)c2ccc(Cl)cc2)cc(OCC2CC(C(=O)O)C2)c1 (stereo not drawn) [Compound 25A] | 12 µM | 7.1 nM | 1640
COc1cc(CCCCC(=O)O)cc(NC(C(=O)N2CCc3ccc(OC(F)(F)F)cc32)c2ccc(Cl)cc2)c1 (single isomer, unassigned) [Compound 14B] | 9.3 µM | 60 nM | 156
COc1cc(NC2CC(C(=O)O)C2)cc(NC(C(=O)N2CCc3ccc(OC(F)(F)F)cc32)c2ccc(Cl)cc2)c1 (single isomer, unassigned) [Compound 33B] | 14 µM | 7.9 nM | 1760
COc1cc(NC(C(=O)N2CCc3ccc(OC(F)(F)F)cc32)c2ccc(Cl)cc2)cc(OCC2(F)CC2C(=O)O)c1 (stereo not drawn) [Compound 28AA] | 11 µM | 330 nM | 34
COc1cc(NC(C(=O)N2CCc3ccc(OC(F)(F)F)cc32)c2ccc(Cl)cc2)cc(OCCC(C)(C)C(=O)O)c1 (single isomer, unassigned) [Compound 2B] | 11 µM | 19 nM | 565
COc1cc(NC(C(=O)N2CCc3cc(OC)c(C(F)(F)F)cc32)c2ccc(Cl)cc2)cc(OCC2CC2C(=O)O)c1 (stereo not drawn) [Compound 22BA] | 12 µM | 15 nM | 786
COc1cc(NC(C(=O)N2CCc3cc(F)c(OC(F)(F)F)cc32)c2ccc(Cl)cc2)cc(OCC2CC(C(=O)O)C2)c1 (stereo not drawn) [Compound 30B] | 11 µM | 5.9 nM | 1800
COc1cc(NC(C(=O)N2CCc3ccc(OC(F)(F)F)cc32)c2ccc(Cl)cc2)cc(OCC2CC2C(=O)O)c1 (stereo not drawn) [Compound 6BA] | 8.7 µM | 12 nM | 703
COc1cc(NC(C(=O)N2CCc3cc(OC)c(C(F)(F)F)cc32)c2ccc(Cl)cc2)cc(OCC2CC(C(=O)O)C2)c1 (stereo not drawn) [Compound 25, (1r,3r)-3-((3-((1-(4-chlorophenyl)-2-(5-methoxy-6-(trifluoromethyl)indolin-1-yl)-2-oxoethyl)amino)-5-methoxyphenoxy)methyl)-cyclobutanecarboxylic Acid] | 12 µM | 0.45 nM | 26800
COc1cc(NC(C(=O)N2CCc3cc(OC)c(C(F)(F)F)cc32)c2ccc(Cl)cc2)cc(OCCC(C)C(=O)O)c1 (single isomer, unassigned) [Compound 20B] | 12 µM | 180 nM | 69
COc1cc(NC(C(=O)N2CCc3ccc(OC(F)(F)F)cc32)c2ccc(Cl)cc2)cc(OCC2(F)CC2C(=O)O)c1 (stereo not drawn) [Compound 28BA] | 10 µM | 17 nM | 574
COc1cc(NC(C(=O)N2CCc3ccc(OC(F)(F)F)cc32)c2ccc(Cl)cc2)cc(OC2CC(C(=O)O)C2)c1 (stereo not drawn) [Compound 8, (1s,3s)-3-(3-((1-(4-chlorophenyl)-2-oxo-2-(6-(trifluoromethoxy)indolin-1-yl)ethyl)amino)-5-methoxyphenoxy)cyclobutanecarboxylic acid] | 13 µM | 0.048 nM | >126733
COc1cc(NC(C(=O)N2CCc3ccc(OC(F)(F)F)cc32)c2ccc(Cl)cc2)cc(OCC2(CC(=O)O)CC2)c1 (single isomer, unassigned) [Compound 5B] | 10 µM | 11 nM | 921
COc1cc(NC(C(=O)N2CCc3ccc(OC(F)(F)F)cc32)c2ccc(Cl)cc2)cc(OCCC(C)C(=O)O)c1 (single isomer, unassigned) [Compound 1A] | 9.6 µM | 18 nM | 523
COc1cc(NC(C(=O)N2CCc3cc(OC)c(Cl)cc32)c2ccc(Cl)cc2)cc(OC2CC(C(=O)O)C2)c1 (single isomer, unassigned) [Compound 32A] | 13 µM | 63 nM | 205
COc1cc(NC(C(=O)N2CCc3ccc(OC(F)(F)F)cc32)c2ccc(Cl)cc2)cc(OCC(C)CC(=O)O)c1 (single isomer, unassigned) [Compound 4B] | 10 µM | 11 nM | 935
COc1cc(NC(C(=O)N2CCc3ccc(OC(F)(F)F)cc32)c2ccc(Cl)cc2)cc(OCC2CC(C(=O)O)C2)c1 (stereo not drawn) [Compound 11A] | 10 µM | 3.8 nM | 2710
COc1cc(NC(C(=O)N2CCc3ccc(OC(F)(F)F)cc32)c2ccc(Cl)cc2OC)cc(OCCC(C)C(=O)O)c1 (single isomer, unassigned) [Compound 17B] | 11 µM | 180 nM | 59
COc1cc(NC(C(=O)N2CCc3ccc(OC(F)(F)F)cc32)c2ccc(Cl)cc2)cc(OCC2CC(C(=O)O)C2)c1 (stereo not drawn) [Compound 10A] | 10 µM | 2.7 nM | 3790
COc1cc(NC(C(=O)N2CCc3ccc(OC(F)(F)F)cc32)c2ccc(Cl)cc2)cc(OC2CC(C(=O)O)C2)c1 (stereo not drawn) [Compound 7A] | 10 µM | 9.1 nM | 1130
COc1cc(NC(C(=O)N2CCc3cc(F)c(OC(F)(F)F)cc32)c2ccc(Cl)cc2)cc(OCC2CC2C(=O)O)c1 (single isomer, unassigned) [Compound 26B, (1 S*,2S*)-2-((3-((1-(4-chlorophenyl)-2-(5-fluoro-6-(trifluoromethoxy)indolin-1-yl)-2-oxoethyl)amino)-5-methoxyphenoxy)methyl)-cyclopropanecarboxylic Acid] | 12 µM | 0.94 nM | 10600
COc1cc(NC(C(=O)N2CCc3ccc(OC(F)(F)F)cc32)c2ccc(Cl)cc2)cc(OC2CC(C(=O)O)C2)c1 (stereo not drawn) [Compound 8A] | 12 µM | 0.86 nM | 11600
COc1cc(NC(C(=O)N2CCc3cc(F)c(OC(F)(F)F)cc32)c2ccc(Cl)cc2)cc(OC2CC(C(=O)O)C2)c1 (single isomer, unassigned) [Compound 27A] | 11 µM | 0.41 nM | 14300
COc1cc(NC(C(=O)N2CCc3ccc(OC(F)(F)F)cc32)c2ccc(Cl)cc2OC)cc(OCC2CC2C(=O)O)c1 (stereo not drawn) [Compound 19BA] | 11 µM | 16 nM | 707
COc1cc(NC(C(=O)N2CCc3ccc(OC(F)(F)F)cc32)c2ccc(Cl)cc2)cc(OCC2(F)CC2C(=O)O)c1 (stereo not drawn) [Compound 29AA] | 9.2 µM | 61 nM | 151
COc1cc(NC(C(=O)N2CCc3ccc(OC(F)(F)F)cc32)c2ccc(Cl)cc2)cc(OCCC(C)C(=O)O)c1 (single isomer, unassigned) [Compound 1B] | 10 µM | 18 nM | 579
COc1cc(NC(C(=O)N2CCc3cc(F)c(OC(F)(F)F)cc32)c2ccc(Cl)cc2)cc(OCC2CC(C(=O)O)C2)c1 (stereo not drawn) [Compound 31B] | 12 µM | 2.6 nM | 4400
